What was measured:
[1] = Half life in mouse at 2 mg/kg, iv; assay type: ADME, organism-based; conditions: in vivo
[2] = Volume of distribution at steady state in dog at 1 mg/kg, iv; assay type: ADME, organism-based, Canis lupus familiaris; conditions: in vivo, read-out: Vdss
Plasma = assay: Ratio drug level in Lewis rat plasma at 0.03 mg/kg, po at 4 hrs to drug level in Lewis rat plasma at 0.03 mg/kg, po at 24 hrs; assay type: ADME, organism-based; conditions: in vivo
[3] = Tmax in rat at 5 mg/kg, po; assay type: ADME, organism-based; conditions: in vivo
[4] = Plasma concentration in Lewis rat at 0.03 mg/kg, po measured at 24 hrs; assay type: ADME, organism-based
[5] = molecular target: T1, Sphingosine 1-phosphate receptor 1 (Homo sapiens, UniProt P21453); assay: Induction of internalization of C-terminal GFP-fused human S1P1 receptor expressed in CHO […] at 4.6 nM after 50 mins relative to control; assay type: cell-based
Rattus norvegicus [6] = assay: Reduction of blood lymphocyte level in Lewis rat at 0.03 mg/kg, po measured at 4 hrs by hematology analyzer relative to vehicle-treated control; assay type: functional; parameters: scale not given: the % may be the effect or the level left
[7] = Plasma concentration in Lewis rat at 0.03 mg/kg, po measured at 4 hrs; assay type: ADME, organism-based
[8] = molecular target: T1, Sphingosine 1-phosphate receptor 1; assay: Induction of internalization of C-terminal GFP-fused human S1P1 receptor expressed in CHO […] after 50 mins; assay type: cell-based
[9] = molecular target: Voltage-gated inwardly rectifying potassium channel KCNH2 (Homo sapiens, UniProt Q12809); assay: Inhibition of human ERG by patch clamp method
[10] = Lipophilicity, log D of the compound at pH 6.5; assay type: physicochemical; conditions: buffer
[11] = Mean residence time in rat at 2 mg/kg, iv; assay type: ADME, organism-based; conditions: in vivo
Cytochrome P450 2C9 = Cytochrome P450 2C9 (Homo sapiens, UniProt P11712); assay: Inhibition of CYP2C9 (unknown origin); assay type: ADME
[12] = Plasma protein binding in dog; assay type: ADME, cell-free, Canis lupus familiaris; conditions: read-out: PPB
[13] = Oral bioavailability in cynomolgus monkey at 5 mg/kg; assay type: ADME, organism-based, Macaca fascicularis; conditions: in vivo
Rattus norvegicus [14] = assay: Clearance in rat at 2 mg/kg, iv relative to hepatic blood flow; assay type: ADME, organism-based; conditions: in vivo
[15] = Tmax in dog at 1 mg/kg, po; assay type: ADME, organism-based, Canis lupus familiaris; conditions: in vivo
[16] = Clearance in cynomolgus monkey at 2 mg/kg, iv; assay type: ADME, organism-based, Macaca fascicularis; conditions: in vivo

T1 sequence (P21453 whole entry, the tested form may be a part): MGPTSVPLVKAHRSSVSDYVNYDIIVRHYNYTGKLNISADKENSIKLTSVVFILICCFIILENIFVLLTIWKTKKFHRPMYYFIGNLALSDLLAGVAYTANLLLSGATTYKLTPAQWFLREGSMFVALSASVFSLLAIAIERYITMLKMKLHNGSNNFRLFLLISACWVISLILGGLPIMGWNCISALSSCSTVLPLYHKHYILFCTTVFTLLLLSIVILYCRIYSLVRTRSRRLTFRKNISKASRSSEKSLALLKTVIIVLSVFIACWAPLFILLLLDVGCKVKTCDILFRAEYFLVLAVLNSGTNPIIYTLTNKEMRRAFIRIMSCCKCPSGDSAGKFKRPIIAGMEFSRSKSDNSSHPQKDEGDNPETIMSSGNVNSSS
Voltage-gated inwardly rectifying potassium channel KCNH2, sequence (Q12809 whole entry): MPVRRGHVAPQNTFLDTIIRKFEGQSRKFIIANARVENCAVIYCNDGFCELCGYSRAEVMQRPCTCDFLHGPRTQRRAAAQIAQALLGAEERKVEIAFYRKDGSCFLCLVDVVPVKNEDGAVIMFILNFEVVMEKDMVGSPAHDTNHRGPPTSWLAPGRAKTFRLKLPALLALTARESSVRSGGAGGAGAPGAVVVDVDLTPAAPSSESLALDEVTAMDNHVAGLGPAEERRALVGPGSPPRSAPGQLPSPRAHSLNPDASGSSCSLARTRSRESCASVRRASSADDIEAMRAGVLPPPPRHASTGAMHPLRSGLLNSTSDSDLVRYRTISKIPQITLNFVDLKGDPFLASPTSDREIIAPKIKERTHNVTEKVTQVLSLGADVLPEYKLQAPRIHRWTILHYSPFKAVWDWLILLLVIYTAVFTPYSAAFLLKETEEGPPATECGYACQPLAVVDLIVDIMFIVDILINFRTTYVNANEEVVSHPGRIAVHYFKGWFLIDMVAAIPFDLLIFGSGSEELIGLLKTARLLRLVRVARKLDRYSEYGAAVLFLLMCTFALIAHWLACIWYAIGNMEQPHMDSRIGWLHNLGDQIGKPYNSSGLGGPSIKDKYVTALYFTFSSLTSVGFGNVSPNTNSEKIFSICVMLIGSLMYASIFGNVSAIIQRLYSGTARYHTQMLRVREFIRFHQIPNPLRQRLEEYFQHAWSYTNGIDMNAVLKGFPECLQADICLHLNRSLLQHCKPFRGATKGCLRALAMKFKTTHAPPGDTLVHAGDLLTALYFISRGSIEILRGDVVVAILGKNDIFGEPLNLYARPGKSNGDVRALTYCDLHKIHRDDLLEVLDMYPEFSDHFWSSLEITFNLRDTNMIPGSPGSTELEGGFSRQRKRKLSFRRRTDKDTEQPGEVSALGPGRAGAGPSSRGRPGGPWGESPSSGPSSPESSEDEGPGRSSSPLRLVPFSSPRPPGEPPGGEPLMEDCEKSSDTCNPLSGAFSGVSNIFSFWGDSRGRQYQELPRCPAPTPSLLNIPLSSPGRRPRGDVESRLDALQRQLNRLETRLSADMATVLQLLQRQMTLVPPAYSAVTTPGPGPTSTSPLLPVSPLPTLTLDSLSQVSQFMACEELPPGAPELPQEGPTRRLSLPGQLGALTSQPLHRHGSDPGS
Cytochrome P450 2C9, sequence (P11712 whole entry): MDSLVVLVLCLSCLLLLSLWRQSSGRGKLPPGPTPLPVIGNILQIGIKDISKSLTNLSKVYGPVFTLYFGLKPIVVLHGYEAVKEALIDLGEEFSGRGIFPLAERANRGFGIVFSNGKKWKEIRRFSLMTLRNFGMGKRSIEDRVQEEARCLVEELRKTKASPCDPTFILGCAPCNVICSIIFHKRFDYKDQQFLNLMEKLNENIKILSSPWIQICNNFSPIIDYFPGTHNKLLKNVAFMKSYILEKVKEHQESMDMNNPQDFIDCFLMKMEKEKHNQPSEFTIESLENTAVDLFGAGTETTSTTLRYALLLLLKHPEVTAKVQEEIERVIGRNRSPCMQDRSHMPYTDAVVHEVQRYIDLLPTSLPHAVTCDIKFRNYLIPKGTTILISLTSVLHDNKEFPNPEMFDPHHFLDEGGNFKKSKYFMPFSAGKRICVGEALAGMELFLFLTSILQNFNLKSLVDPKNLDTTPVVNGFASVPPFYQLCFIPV

O=C(O)C1CN(Cc2ccc(-c3noc(-c4onc(-c5ccccc5)c4C(F)(F)F)n3)cc2)C1
half-life [1]: 9.8 h | Vd [2]: 0.7 L/kg | Ratio (Plasma): 5 | Tmax [3]: 3.3 h | concentration at 24 h [4]: 4 nM | Activity [5]: > 90% | Activity (Rattus norvegicus [6]): 75% | concentration at 4 h [7]: 20 nM | EC50 [8]: 0.00027 µM | IC50 [9]: 18 µM | logD [10]: 2.68 | MRT [11]: 14 h | IC50 (Cytochrome P450 2C9): > 40 µM | fraction unbound [12]: 0.01 | bioavailability [13]: 70% | CL (Rattus norvegicus [14]): 2.4% | Tmax [15]: 8.9 h | clearance [16]: 5.2 mL/min/kg
